Values quoted from earlier work, collected in article PMC3807987 (Pharmacognosy Research, 2013).
Like-named read-outs stand apart in the source and are kept apart here.

Tested on: CYP2D6

CYP2D6 inhibition strength (dose of 50 mg): mild inhibitor | CYP2D6 inhibition strength (dose of 200 mg): potent inhibitor
SMILES: CN[C@H]1CC[C@@H](c2ccc(Cl)c(Cl)c2)c2ccccc21 [Sertraline]
